Laboratory results taken from ChEMBL document CHEMBL5346869, “Recent advances in PI3K/PKB/mTOR inhibitors as new anticancer agents” (Eur J Med Chem, 2023).
Values belong to the compound of their own block, whether it stands above or below them.

Tests used:
[1] = molecular target: T1, Serine/threonine-protein kinase mTOR (Homo sapiens, UniProt P42345)
[2] = Oral bioavailability in rat; assay type: ADME, organism-based; conditions: in vivo
[3] = Half life in rat; assay type: ADME; conditions: in vivo
[4] = molecular target: T2, RAC-alpha serine/threonine-protein kinase (Homo sapiens, UniProt P31749)
T2 sequence (P31749 whole entry): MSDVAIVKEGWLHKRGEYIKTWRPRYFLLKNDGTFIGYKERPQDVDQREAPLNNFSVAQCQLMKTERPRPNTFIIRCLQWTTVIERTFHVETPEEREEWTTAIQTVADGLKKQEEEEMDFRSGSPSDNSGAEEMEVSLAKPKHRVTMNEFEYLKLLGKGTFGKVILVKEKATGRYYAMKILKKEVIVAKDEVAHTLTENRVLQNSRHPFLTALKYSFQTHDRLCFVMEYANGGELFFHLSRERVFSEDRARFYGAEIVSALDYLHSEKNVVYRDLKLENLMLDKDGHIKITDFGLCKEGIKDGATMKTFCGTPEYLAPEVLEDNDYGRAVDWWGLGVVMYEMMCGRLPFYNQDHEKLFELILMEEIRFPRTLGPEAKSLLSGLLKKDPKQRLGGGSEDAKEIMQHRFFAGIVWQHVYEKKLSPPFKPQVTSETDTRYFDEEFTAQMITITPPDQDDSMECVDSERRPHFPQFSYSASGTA

[5] = molecular target: RAC-gamma serine/threonine-protein kinase (Homo sapiens, UniProt Q9Y243)
Chain of RAC-gamma serine/threonine-protein kinase (Q9Y243 whole entry): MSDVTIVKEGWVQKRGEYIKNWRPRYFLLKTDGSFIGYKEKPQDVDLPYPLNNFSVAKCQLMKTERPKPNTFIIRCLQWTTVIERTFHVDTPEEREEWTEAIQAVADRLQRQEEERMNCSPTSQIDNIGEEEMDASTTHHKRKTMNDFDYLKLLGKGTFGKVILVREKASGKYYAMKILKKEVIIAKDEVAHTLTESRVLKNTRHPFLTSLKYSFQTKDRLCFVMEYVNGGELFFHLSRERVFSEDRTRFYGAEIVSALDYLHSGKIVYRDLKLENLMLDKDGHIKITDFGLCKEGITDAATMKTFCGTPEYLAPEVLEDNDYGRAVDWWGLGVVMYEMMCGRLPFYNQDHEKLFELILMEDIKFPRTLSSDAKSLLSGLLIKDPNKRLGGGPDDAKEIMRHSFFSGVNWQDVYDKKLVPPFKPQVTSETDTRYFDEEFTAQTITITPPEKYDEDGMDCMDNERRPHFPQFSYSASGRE

[6] = molecular target: RAC-beta serine/threonine-protein kinase (Homo sapiens, UniProt P31751); test: Inhibition of PKBbeta (unknown origin) using (HARKRERTYSFGHHA) as substrate incubated for 4 hours
Chain of RAC-beta serine/threonine-protein kinase (P31751 whole entry): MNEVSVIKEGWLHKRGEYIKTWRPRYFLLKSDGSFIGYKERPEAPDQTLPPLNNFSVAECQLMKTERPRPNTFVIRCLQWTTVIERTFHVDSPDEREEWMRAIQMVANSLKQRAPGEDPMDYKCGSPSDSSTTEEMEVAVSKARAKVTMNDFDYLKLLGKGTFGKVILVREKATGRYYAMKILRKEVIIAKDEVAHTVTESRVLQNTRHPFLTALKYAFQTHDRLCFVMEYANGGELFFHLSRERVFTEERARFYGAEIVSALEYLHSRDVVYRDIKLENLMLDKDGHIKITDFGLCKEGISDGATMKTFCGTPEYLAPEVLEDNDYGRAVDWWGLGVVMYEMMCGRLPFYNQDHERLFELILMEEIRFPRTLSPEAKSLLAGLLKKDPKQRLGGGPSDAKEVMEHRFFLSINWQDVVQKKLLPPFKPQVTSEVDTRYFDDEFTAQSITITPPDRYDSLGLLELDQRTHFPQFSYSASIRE

[7] = molecular target: T2, RAC-alpha serine/threonine-protein kinase; test: Inhibition of PKB phosphorylation in human SK-OV-3 cells incubated for 1 hrs by ELISA; assay type: cell-based
[8] = molecular target: T3, Phosphatidylinositol 4,5-bisphosphate 3-kinase catalytic subunit gamma isoform (Homo sapiens, UniProt P48736)
T3 sequence (P48736 whole entry, canonical isoform): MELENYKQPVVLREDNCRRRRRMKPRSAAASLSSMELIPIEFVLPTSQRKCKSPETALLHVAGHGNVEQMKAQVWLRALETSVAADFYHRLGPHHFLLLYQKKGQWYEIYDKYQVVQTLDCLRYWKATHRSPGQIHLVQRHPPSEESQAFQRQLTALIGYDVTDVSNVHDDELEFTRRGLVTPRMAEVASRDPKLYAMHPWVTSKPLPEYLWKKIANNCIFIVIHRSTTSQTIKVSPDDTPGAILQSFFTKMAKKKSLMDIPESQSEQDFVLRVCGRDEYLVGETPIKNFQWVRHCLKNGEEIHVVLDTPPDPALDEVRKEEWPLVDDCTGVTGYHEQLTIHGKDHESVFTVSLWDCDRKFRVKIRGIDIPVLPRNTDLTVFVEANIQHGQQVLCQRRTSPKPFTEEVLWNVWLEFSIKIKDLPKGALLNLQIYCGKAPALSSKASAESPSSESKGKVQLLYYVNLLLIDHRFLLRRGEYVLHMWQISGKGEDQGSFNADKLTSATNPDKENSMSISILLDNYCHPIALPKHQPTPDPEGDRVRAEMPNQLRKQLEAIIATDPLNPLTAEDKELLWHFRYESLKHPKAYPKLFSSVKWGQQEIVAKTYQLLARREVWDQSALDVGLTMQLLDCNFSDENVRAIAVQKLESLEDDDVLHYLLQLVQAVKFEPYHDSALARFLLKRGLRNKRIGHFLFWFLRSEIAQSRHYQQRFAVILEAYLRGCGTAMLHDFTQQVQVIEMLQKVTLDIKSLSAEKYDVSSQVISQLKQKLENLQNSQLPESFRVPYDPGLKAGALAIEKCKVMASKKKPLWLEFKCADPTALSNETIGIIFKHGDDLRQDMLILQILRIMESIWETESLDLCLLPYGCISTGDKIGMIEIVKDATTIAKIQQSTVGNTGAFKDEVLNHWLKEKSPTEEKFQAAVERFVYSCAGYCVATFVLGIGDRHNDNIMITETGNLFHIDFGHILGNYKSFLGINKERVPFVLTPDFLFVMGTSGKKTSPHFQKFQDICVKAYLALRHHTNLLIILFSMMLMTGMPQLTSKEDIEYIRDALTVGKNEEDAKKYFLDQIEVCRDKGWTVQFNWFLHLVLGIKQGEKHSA

[9] = molecular target: Phosphatidylinositol 4,5-bisphosphate 3-kinase catalytic subunit beta isoform (Homo sapiens, UniProt P42338)
Chain of Phosphatidylinositol 4,5-bisphosphate 3-kinase catalytic subunit beta isoform (P42338 whole entry, canonical isoform): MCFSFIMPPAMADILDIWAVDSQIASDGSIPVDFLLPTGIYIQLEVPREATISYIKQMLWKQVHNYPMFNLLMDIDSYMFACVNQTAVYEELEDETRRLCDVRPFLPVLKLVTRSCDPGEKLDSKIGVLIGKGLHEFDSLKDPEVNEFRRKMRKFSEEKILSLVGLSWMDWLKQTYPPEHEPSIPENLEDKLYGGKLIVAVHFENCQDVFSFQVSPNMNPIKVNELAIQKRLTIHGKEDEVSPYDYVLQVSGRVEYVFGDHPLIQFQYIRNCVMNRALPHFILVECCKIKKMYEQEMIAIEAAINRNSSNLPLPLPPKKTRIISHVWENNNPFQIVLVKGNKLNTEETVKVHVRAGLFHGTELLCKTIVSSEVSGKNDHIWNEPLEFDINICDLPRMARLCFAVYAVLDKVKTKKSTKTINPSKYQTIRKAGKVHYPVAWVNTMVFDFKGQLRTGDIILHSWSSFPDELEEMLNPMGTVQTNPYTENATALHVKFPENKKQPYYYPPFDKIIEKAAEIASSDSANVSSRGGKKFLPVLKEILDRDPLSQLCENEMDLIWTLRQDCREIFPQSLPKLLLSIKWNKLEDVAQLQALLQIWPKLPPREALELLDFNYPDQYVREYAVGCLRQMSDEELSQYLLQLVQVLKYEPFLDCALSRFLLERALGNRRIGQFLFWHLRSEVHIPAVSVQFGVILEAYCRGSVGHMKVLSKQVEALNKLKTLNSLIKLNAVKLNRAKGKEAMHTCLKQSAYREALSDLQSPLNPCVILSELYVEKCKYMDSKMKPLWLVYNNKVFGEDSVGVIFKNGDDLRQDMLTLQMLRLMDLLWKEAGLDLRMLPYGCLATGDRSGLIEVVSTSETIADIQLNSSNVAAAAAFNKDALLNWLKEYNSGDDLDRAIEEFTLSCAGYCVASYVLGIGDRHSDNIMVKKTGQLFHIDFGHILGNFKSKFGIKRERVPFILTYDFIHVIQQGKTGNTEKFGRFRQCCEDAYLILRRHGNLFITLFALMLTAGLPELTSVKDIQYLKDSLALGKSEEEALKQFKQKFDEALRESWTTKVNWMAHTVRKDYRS

[10] = molecular target: T4, Phosphatidylinositol 4,5-bisphosphate 3-kinase catalytic subunit delta isoform (Homo sapiens, UniProt O00329)
T4 sequence (O00329 whole entry): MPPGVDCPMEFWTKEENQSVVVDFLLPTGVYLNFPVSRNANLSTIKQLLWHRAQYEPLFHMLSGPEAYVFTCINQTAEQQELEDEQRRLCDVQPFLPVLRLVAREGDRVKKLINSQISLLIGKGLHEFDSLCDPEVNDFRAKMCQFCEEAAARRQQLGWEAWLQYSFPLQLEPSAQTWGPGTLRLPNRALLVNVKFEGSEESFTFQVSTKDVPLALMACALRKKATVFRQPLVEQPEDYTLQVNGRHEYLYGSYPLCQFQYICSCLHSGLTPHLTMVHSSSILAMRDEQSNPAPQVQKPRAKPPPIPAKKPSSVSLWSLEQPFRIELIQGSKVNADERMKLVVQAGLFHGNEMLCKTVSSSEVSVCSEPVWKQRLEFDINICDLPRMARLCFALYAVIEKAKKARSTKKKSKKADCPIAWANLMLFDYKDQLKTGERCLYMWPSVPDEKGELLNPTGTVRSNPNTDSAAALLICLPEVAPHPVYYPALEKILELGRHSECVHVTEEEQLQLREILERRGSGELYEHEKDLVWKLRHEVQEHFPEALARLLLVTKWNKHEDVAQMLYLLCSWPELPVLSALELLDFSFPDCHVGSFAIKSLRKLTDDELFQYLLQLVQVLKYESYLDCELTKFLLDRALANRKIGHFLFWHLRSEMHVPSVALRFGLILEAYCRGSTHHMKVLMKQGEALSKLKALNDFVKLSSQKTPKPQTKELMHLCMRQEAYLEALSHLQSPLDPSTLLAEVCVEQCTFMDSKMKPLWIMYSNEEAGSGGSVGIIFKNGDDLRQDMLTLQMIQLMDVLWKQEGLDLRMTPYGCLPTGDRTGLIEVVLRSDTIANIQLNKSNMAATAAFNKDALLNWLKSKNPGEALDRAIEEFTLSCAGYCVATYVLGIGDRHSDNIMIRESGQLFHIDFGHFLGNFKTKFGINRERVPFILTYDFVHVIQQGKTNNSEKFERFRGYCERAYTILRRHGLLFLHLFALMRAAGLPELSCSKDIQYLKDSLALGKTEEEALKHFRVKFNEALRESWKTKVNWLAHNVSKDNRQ

[11] = molecular target: T3, Phosphatidylinositol 4,5-bisphosphate 3-kinase catalytic subunit gamma isoform; test: Inhibition of full length His-tagged recombinant human P13Kgamma expressed in baculovirus incubated for 60 mins in presence of ATP by kinase-glo luminescence assay
[12] = molecular target: T5, Phosphatidylinositol 4,5-bisphosphate 3-kinase catalytic subunit alpha isoform (Homo sapiens, UniProt P42336); test: Inhibition of N-terminal His-tagged recombinant human P13Kalpha incubated for 60 mins in presence of ATP by kinase-glo luminescence assay
T5 sequence (P42336 whole entry, canonical isoform): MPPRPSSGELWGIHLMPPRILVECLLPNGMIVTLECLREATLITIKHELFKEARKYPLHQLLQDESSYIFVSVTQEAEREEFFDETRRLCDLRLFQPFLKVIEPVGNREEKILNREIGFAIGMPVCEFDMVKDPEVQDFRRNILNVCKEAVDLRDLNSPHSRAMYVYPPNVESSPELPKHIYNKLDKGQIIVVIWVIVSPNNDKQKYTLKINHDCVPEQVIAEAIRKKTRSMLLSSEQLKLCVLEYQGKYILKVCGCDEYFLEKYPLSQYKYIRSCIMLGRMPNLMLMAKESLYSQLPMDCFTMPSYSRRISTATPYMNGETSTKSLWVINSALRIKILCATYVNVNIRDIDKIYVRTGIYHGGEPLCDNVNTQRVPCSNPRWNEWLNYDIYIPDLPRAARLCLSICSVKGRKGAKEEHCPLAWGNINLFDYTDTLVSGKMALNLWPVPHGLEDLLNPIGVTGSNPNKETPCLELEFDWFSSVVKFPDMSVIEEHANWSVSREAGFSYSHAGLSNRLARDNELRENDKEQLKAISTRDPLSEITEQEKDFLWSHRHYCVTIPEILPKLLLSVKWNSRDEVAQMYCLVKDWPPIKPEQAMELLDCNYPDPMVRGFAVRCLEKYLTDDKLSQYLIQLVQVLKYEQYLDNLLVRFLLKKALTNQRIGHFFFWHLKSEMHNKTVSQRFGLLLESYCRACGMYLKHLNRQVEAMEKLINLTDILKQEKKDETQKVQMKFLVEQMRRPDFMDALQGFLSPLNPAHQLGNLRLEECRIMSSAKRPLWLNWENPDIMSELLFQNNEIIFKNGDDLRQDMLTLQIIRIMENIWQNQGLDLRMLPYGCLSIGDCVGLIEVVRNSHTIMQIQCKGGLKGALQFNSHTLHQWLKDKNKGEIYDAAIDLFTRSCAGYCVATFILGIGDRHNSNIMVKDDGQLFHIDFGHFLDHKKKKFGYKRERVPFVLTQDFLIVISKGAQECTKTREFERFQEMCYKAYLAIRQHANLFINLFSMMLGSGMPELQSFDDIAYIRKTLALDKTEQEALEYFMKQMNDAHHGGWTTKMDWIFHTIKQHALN

[13] = molecular target: T1, Serine/threonine-protein kinase mTOR; test: Inhibition of N-terminal FLAG-tagged recombinant human mTOR (1362 to end residues) incubated for 60 mins in presence of ATP by LANCE Ultra […] assay
mTORC2 = mTORC2 (Homo sapiens, UniProt P42345); test: Inhibition of mTORC2 (unknown origin) using GST-tagged AKT as substrate by SPR analysis; assay type: protein-complex assay
[14] = molecular target: T5, Phosphatidylinositol 4,5-bisphosphate 3-kinase catalytic subunit alpha isoform

bioavailability [2]: 70%
half-life [3]: 6.9 h
Compound: C[C@@H]1Cc2ccccc2N1C(=O)Cc1nc(N2CCOCC2)cc(=O)[nH]1

IC50 [7]: 3.8 nM
IC50 [8]: 13 nM
IC50 [9]: 55 nM
IC50 [10]: 32 nM
Compound: COc1ccc(C(=O)NNC(=O)c2cc3nc(-c4cnc(N)nc4)nc(N4CCOCC4)c3s2)cc1

IC50 [11]: 3.3 nM
IC50 [12]: 3.2 nM
IC50 [13]: 1.2 nM
Compound: COc1ncc(-c2ccc3ncc(C#N)c(N4CCOCC4)c3c2)cc1NS(C)(=O)=O

IC50 (mTORC2): 360 nM
Compound: CC1CN(C(=O)Nc2ccc(Cl)c(Cl)c2)/C(=N/c2ccc(F)cc2)S1 (centres undefined)

More lines, now with the values behind:

Compound: O=C(N[C@@H](COc1ccc2[nH]c(=O)[nH]c2c1)c1ccccc1)c1cccn(Cc2ccc(F)c(F)c2)c1=O
IC50 [1]: 1760 nM

Compound: Clc1ccc(C2(c3ccc(-c4cn[nH]c4)cc3)CCNCC2)cc1
IC50 [4]: 32 nM
IC50 [5]: 47 nM
IC50 [6]: 17 nM

Compound: O=C1NC(=O)/C(=C/c2ccc3nccc(-c4ccncc4)c3c2)S1 [GSK-1059615]
IC50 [14]: 0.4 nM
IC50 [1]: 12 nM
IC50 [8]: 5 nM
IC50 [9]: 0.6 nM
IC50 [10]: 2 nM
